Data as given in patent US10010608B2, “Combination therapies for cancer” (MERCK SHARP & DOHME CORP., priority 2013, dated 2018).

Tested on: CT-26 murine colorectal adenocarcinoma cell line
Assay: Anti-tumor response of CT-26 tumor-bearing BALB/c mice (syngeneic model)
Format: in vivo, mouse
From the text: This experiment compared the anti-tumor response of tumor-bearing mice to treatment with one of three regimens: (i) monotherapy with a murine anti-mouse PD-1 monoclonal antibody of murine isotype IgG1 (Anti-PD1); (ii) monotherapy with trametinib and (iii) combination therapy with anti-PD1 and trametinib administered concurrently. Murine isotype IgG1 is the murine counterpart isotype to human isotype IgG4.
While human tumor cells or tumor explants can be grown in immunodeficient animals as xenografts, they cannot be used for testing immunotherapeutics because of the lack of a functional immune system. For a meaningful evaluation of immunotherapeutics or combination of immunotherapeutics with other agents, it is necessary to use a syngeneic model in which syngeneic tumors are grown in animals with an intact immune system. CT-26 is a murine colorectal adenocarcinoma cell line syngeneic to the BALB/c mouse strain. CT-26 carries a KRAS mutation that activates the mitogen-activating protein kinase pathway, which makes it a relevant model to evaluate sensitivity to trametinib (an inhibitor of mitogen-activated protein kinase kinase). This is also a relevant model system for evaluating the mechanism of action for an anti-PD-1 antibody because of the translatable molecular profile of this tumor post-anti-PD-1 therapy. […]

Compound: CC(=O)Nc1cccc(-n2c(=O)n(C3CC3)c(=O)c3c(Nc4ccc(I)cc4F)n(C)c(=O)c(C)c32)c1 [trametinib, N-{3-[3-cyclopropyl-5-(2-fluoro-4-iodo-phenylamino)6,8-dimethyl-2,4,7-trioxo-3,4,6,7-tetrahydro-2H-pyrido[4,3-d]pyrimidin-1-yl]phenyl}acetamide]
- effect of trametinib on the anti-tumor effects of Anti-PD1 (combination treatment arm): did not appear to antagonize
- animals with complete regression (CR) (end of the 23 day treatment period, 12 mice per group): no CRs
